Results as given in patent US20230150970A1, “AMINOPYRIMIDINE DERIVATIVES AND THEIR USE AS ARYL HYDROCARBON RECEPTOR MODULATORS” (DONG-A ST CO., LTD., priority 2020, published 2023).

Target: T1, AhR (Homo sapiens, UniProt P35869)
T1 sequence (P35869 11-848): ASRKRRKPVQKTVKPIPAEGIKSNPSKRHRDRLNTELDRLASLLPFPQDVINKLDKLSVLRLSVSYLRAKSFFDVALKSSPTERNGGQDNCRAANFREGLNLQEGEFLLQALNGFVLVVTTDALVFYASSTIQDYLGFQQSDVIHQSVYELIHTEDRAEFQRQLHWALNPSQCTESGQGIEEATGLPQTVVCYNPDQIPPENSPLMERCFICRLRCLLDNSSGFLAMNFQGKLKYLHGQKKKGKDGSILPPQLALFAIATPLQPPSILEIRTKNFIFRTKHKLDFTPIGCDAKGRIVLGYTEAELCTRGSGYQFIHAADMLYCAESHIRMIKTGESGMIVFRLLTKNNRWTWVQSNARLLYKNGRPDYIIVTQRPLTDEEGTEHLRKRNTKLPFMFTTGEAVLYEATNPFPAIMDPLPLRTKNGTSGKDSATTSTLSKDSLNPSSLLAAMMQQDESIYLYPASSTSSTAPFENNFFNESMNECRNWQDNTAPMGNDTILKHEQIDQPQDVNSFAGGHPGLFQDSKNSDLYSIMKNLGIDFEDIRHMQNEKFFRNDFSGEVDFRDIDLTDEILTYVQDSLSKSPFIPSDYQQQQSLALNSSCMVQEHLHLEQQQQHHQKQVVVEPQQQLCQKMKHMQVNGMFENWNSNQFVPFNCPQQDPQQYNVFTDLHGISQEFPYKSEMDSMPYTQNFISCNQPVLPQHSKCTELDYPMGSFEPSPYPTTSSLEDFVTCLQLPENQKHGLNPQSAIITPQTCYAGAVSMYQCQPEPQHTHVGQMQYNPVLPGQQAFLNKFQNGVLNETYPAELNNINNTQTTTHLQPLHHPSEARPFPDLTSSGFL
Assay: In Vitro Assay 1: XRE-luciferase reporter assay, antagonism in human cell line (HepG2)
Conditions: Assay 1: AhR-Luc Human Antagonism (IC50, nM), values marked *: kynurenine 50 μM, 6 hours
Excerpt: In Vitro XRE-Luciferase Reporter Assay (In Vitro Assay 1, 2, 3) AhR activation leads the induction of target gene expression such as CYP1A1 and CYPIB1 by AhR binding to AhR-responsive DNA elements also known as xenobiotics responsive elements (XREs). The assay for measuring AhR activity herein is the luciferase assay using cell lines transfected with luciferase reporter plasmid containing XREs at the upstream of the reporter gene. Cells transfected with XRE-luciferase reporter (XRE-Luc), plasmid drive luciferase activity reflecting activation and inhibition of AhR in the cells. […] Kynurenine (an endogenous AhR agonist), was used to stimulate cells to test antagonistic properties of the compounds. The half-maximal inhibitory concentration (IC50), or half-maximal effective concentration (EC50), value was calculated using nonlinear regression (four parameters), with Prism8.0 software (GraphPad).
In Vitro Assay 1: Antagonism in Human Cell Line
HepG2 (human hepatoma cell line) cell line with a XRE-luciferase reporter either transiently or stably (Invivogen) were plated in complete medium and incubated at 37° C. in a CO2 incubator. After 24 hours, cells were treated with kynurenine (50* or 200 μM) alone (negative control) or with test compounds for 6 hours. Luciferase activity was measured with a commercial kit such as the Promega Luciferase kit or Invivogen Luciferase kit. Relative luciferase activity (Firefly/Nano-Luc) was used to calculate IC50 values. […] (IC50 values are grouped as A, B, C and D, whereby A: IC50<0.01 μM; B: 0.01<IC50<0.1 μM; C: 0.1<IC50<1.0 μM; D: IC50>1.0 μM)

IC50 [nM]	Compound
> 1000	O[C@@H]1CCCC[C@H]1Nc1cc(-c2ccc(Cl)cc2)nc(-c2cccnc2)n1 (relative stereo) [Example 35, trans-2-((6-(4-chlorophenyl)-2-(pyridin-3-yl)pyrimidin-4-yl)amino)cyclohexan-1-ol]
10 to 100	O[C@@H]1CCC[C@H]1Nc1cc(-c2ccc(Cl)cc2)nc(-c2cccnc2)n1 (relative stereo) [Example 68, trans-2-((6-(4-chlorophenyl)-2-(pyridin-3-yl)pyrimidin-4-yl)amino)cyclopentan-1-ol]
> 1000	C[C@@H]1CN(c2cc(-c3ccc(Cl)cc3)nc(-c3cccnc3)n2)[C@@H](C)CN1 (relative stereo) [Example 103, Trans-4-(4-chlorophenyl)-6-(2,5-dimethylpiperazin-1-yl)-2-(pyridin-3-yl)pyrimidine]
> 1000	Clc1ccc(-c2cc(N[C@@H]3COC[C@H]3N3CCCC3)nc(-c3cccnc3)n2)cc1 (relative stereo) [Example 201, Trans-6-(4-chlorophenyl)-2-(pyridin-3-yl)-N-(4-(pyrrolidin-1-yl)tetrahydrofuran-3-yl)pyrimidin-4-amine]
> 1000	CC(C)N1C[C@@H](O)[C@H](Nc2cc(-c3ccc(Cl)cc3)nc(-c3cccnc3)n2)C1 (relative stereo) [Example 209, Trans-4-((6-(4-chlorophenyl)-2-(pyridin-3-yl)pyrimidin-4-yl)amino)-1-isopropylpyrrolidin-3-ol]
100 to 1000	C[C@@H](CO)Nc1cc(-c2ccc(Cl)cc2)nc(-c2cccnc2)n1 [Example 2, (S)-2-((6-(4-chlorophenyl)-2-(pyridin-3-yl)pyrimidin-4-yl)amino)propan-1-ol]
100 to 1000	C[C@@H](CO)Nc1nc(-c2ccc(Cl)cc2)cc(-c2cccnc2)n1 [Example 3, (S)-2-((4-(4-chlorophenyl)-6-(pyridin-3-yl)pyrimidin-2-yl)amino)propan-1-ol]
100 to 1000	CC(C)(CO)Nc1cc(-c2ccc(Cl)cc2)nc(-c2cccnc2)n1 [Example 4, 2-((6-(4-chlorophenyl)-2-(pyridin-3-yl)pyrimidin-4-yl)amino)-2-methylpropan-1-ol]
> 1000	CC(C)(CO)Nc1nc(-c2ccc(Cl)cc2)cc(-c2cccnc2)n1 [Example 5, 2-((4-(4-chlorophenyl)-6-(pyridin-3-yl)pyrimidin-2-yl)amino)-2-methylpropan-1-ol]
100 to 1000	OCCNc1cc(-c2ccc(Cl)cc2)nc(-c2cccnc2)n1 [Example 6, 2-((6-(4-chlorophenyl)-2-(pyridin-3-yl)pyrimidin-4-yl)amino)ethan-1-ol]
> 1000	OCCCNc1cc(-c2ccc(Cl)cc2)nc(-c2cccnc2)n1 [Example 7, 3-((6-(4-chlorophenyl)-2-(pyridin-3-yl)pyrimidin-4-yl)amino)propan-1-ol]
100 to 1000	C[C@H](O)CNc1cc(-c2ccc(Cl)cc2)nc(-c2cccnc2)n1 [Example 8, (S)-1-((6-(4-chlorophenyl)-2-(pyridin-3-yl)pyrimidin-4-yl)amino)propan-2-ol]
100 to 1000	C[C@@H](O)CNc1cc(-c2ccc(Cl)cc2)nc(-c2cccnc2)n1 [Example 9, (R)-1-((6-(4-chlorophenyl)-2-(pyridin-3-yl)pyrimidin-4-yl)amino)propan-2-ol]
100 to 1000	OCC(O)CNc1cc(-c2ccc(Cl)cc2)nc(-c2cccnc2)n1 (stereo not shown) [Example 10, 3-((6-(4-chlorophenyl)-2-(pyridin-3-yl)pyrimidin-4-yl)amino)propane-1,2-diol]
10 to 100	C[C@H](CO)Nc1cc(-c2ccc(Cl)cc2)nc(-c2cccnc2)n1 [Example 11, (R)-2-((6-(4-chlorophenyl)-2-(pyridin-3-yl)pyrimidin-4-yl)amino)propan-1-ol]
100 to 1000	CC(C)C(CO)Nc1cc(-c2ccc(Cl)cc2)nc(-c2cccnc2)n1 (stereo not shown) [Example 12, 2-((6-(4-chlorophenyl)-2-(pyridin-3-yl)pyrimidin-4-yl)amino)-3-methylbutan-1-ol]

IC50 [nM]	Compound
> 1000	CC(C)[C@@H](CO)Nc1cc(-c2ccc(Cl)cc2)nc(-c2cccnc2)n1 [Example 13, (S)-2-((6-(4-chlorophenyl)-2-(pyridin-3-yl)pyrimidin-4-yl)amino)-3-methylbutan-1-ol]
> 1000	CC(C)[C@H](CO)Nc1cc(-c2ccc(Cl)cc2)nc(-c2cccnc2)n1 [Example 14, (R)-2-((6-(4-chlorophenyl)-2-(pyridin-3-yl)pyrimidin-4-yl)amino)-3-methylbutan-1-ol]
> 1000	CCC(CO)Nc1cc(-c2ccc(Cl)cc2)nc(-c2cccnc2)n1 (stereo not shown) [Example 15, 2-((6-(4-chlorophenyl)-2-(pyridin-3-yl)pyrimidin-4-yl)amino)butan-1-ol]
> 1000	OCC(CO)Nc1cc(-c2ccc(Cl)cc2)nc(-c2cccnc2)n1 [Example 16, 2-((6-(4-chlorophenyl)-2-(pyridin-3-yl)pyrimidin-4-yl)amino)propane-1,3-diol]
> 1000	O[C@@H](CNc1cc(-c2ccc(Cl)cc2)nc(-c2cccnc2)n1)c1ccccc1 [Example 17, (R)-2-((6-(4-chlorophenyl)-2-(pyridin-3-yl)pyrimidin-4-yl)amino)-1-phenylethan-1-ol]
> 1000	O[C@H](CNc1cc(-c2ccc(Cl)cc2)nc(-c2cccnc2)n1)c1ccccc1 [Example 18, (S)-2-((6-(4-chlorophenyl)-2-(pyridin-3-yl)pyrimidin-4-yl)amino)-1-phenylethan-1-ol]
100 to 1000	Clc1ccc(-c2cc(NCC3CCOCC3)nc(-c3cccnc3)n2)cc1 [Example 19, 6-(4-chlorophenyl)-2-(pyridin-3-yl)-N-((tetrahydro-2H-pyran-4-yl)methyl)pyrimidin-4-amine]
> 1000	CN(C)CCCNc1cc(-c2ccc(Cl)cc2)nc(-c2cccnc2)n1 [Example 20, N^1-(6-(4-chlorophenyl)-2-(pyridin-3-yl)pyrimidin-4-yl)-N^3,N^3-dimethylpropane-1,3-diamine]
100 to 1000	CCNc1cc(-c2ccc(Cl)cc2)nc(-c2cccnc2)n1 [Example 21, 6-(4-chlorophenyl)-N-ethyl-2-(pyridin-3-yl)pyrimidin-4-amine]
100 to 1000	CCCNc1cc(-c2ccc(Cl)cc2)nc(-c2cccnc2)n1 [Example 22, 6-(4-chlorophenyl)-N-propyl-2-(pyridin-3-yl)pyrimidin-4-amine]
> 1000	CCCCNc1cc(-c2ccc(Cl)cc2)nc(-c2cccnc2)n1 [Example 23, N-butyl-6-(4-chlorophenyl)-2-(pyridin-3-yl)pyrimidin-4-amine]
100 to 1000	CCC(O)CNc1cc(-c2ccc(Cl)cc2)nc(-c2cccnc2)n1 (stereo not shown) [Example 24, 1-((6-(4-chlorophenyl)-2-(pyridin-3-yl)pyrimidin-4-yl)amino)butan-2-ol]
> 1000	Clc1ccc(-c2cc(NCC3CC3)nc(-c3cccnc3)n2)cc1 [Example 25, 6-(4-chlorophenyl)-N-(cyclopropylmethyl)-2-(pyridin-3-yl)pyrimidin-4-amine]
> 1000	Clc1ccc(-c2cc(NC3CCCC3)nc(-c3cccnc3)n2)cc1 [Example 26, 6-(4-chlorophenyl)-N-cyclopentyl-2-(pyridin-3-yl)pyrimidin-4-amine]
> 1000	CC(C)(C)Nc1cc(-c2ccc(Cl)cc2)nc(-c2cccnc2)n1 [Example 28, N-(tert-butyl)-6-(4-chlorophenyl)-2-(pyridin-3-yl)pyrimidin-4-amine]
